Reference: patent publication US11571401B2, “Compounds, compositions, kits, and methods for activating immune cells and/or an immune system response” (East Carolina University, priority 2017, dated 2023)

Tests used:
B16F10 melanoma cells [1] = assay: Cell surface calreticulin (CRT) expression by flow cytometry in B16F10 melanoma cells; assay type: cell-based, mouse
Protocol: DAMPs are proteins that are expressed on the surface of cancer cells (e.g., calreticulin (CRT)) or are released from cancer cells (e.g., ATP and HMGB1) after exposure to DAMP inducing agents. DAMPs signal immune cell mediated cancer death.
B16F10 melanoma cells were treated with 5 uM 15dPMJ2 (PMJ), 5 uM oxaliplatin (OX), drug vehicle (VEH, DMSO 0.1%) or cells remained untreated (UT) for 2 hours. After 2 hours, cell surface calreticulin (CRT) expression was measured by flow cytometric analysis.
Brefeldin A is a molecule that inhibits the movement of proteins from the ER to the golgi apparatus (inhibits ER-golgi trafficking). Proteins must move from the ER to golgi in order translocate to the cell surface.
B 16f10 cells were treated with vehicle (V), brefeldin A (BFA), 15dPMJ2 (PMJ) or brefeldin+15dPMJ2.

[2] = tested on: non-tumorigenic, HaCaT keratinocyte cell line; assay: Cell surface CRT expression by flow cytometry in HaCaT keratinocytes; assay type: cell-based, human; conditions: HaCaT non-tumor keratinocytes vs drug vehicle (0.1% DMSO); FIG. 7
Protocol: (§1) Tumorigenic, A431, and non-tumorigenic, HaCaT keratinocyte cell lines were treated with 15dPMJ2 or drug vehicle (0.1% DMSO) and the cell surface expression of calreticulin (CRT; “eat me” signal) and CD47 (“don't eat me” signal) was detected by conducting flow cytometric analysis.

[3] = tested on: immature dendritic cells isolated from the bone marrow of C57BL/6 mice; assay: Dendritic cell maturation: drug-treated B16F10 cells co-cultured with immature bone marrow dendritic cells; assay type: cell-based, mouse; conditions: FIG. 9
Protocol: B16F10 melanoma cells remained untreated (UT) or were treated with lipopolysaccharide (LPS; positive control dendritic cell activator), vehicle (VEH; 0.1% DMSO), 500 uM oxaliplatin (OXA; positive control DAMP inducer), or 5 uM 15dPMJ2 (PMJ). The drug-treated cancer cells were then co-cultured with immature dendritic cells that were isolated from the bone marrow of C57BL/6 mice (mouse strain from which the B16F10 cell line was derived). Cell surface markers for dendritic cell maturation were then detected.

B16F10 melanoma cells [4] = assay: Extracellular ATP release from B16F10 melanoma cells; assay type: cell-based, mouse
Protocol: B16F10 melanoma cells were treated with 5 uM 15dPMJ2 (PMJ), 5uM oxaliplatin (OX), drug vehicle (VEH, DMSO 0.1%) or cells remained untreated (UT) for 4 hours. After 4 hours of drug treatment, the cell culture media from B16F10 cells was obtained to measured ATP levels.
B16F10 cells were treated with 15dPMJ2 (PMJ), oxaliplatin (OX), or drug vehicle (VEH) in the presence or absence of the ER stress inhibitor, GSK2656157 (“inhibitor” (I)).

B16F10 melanoma tumors = assay: Tumor-infiltrating mature dendritic cells in B16F10 melanoma tumors in mice; assay type: in vivo; conditions: C57BL/6 mice, peri-tumor route, 5 days, 0.5 and 0.25 mg/kg (FIG. 10), compared to cisplatin-, oxaliplatin-treated and untreated animals
Protocol: To determine if 15dPMJ2 can increase the amount of tumor-attacking immune cells in melanoma tumors, a pilot xenograft study was conducted. B16F10 melanoma cells were injected into the subcutaneous flank region of C57BL/6 mice and tumor growth was allowed until tumors were palpable. Animals were then treated by the peri-tumor route with 15dPMJ2, oxaliplatin (positive control DAMP inducer), cisplatin (negative control DAMP inducer), vehicle (PBS containing 0.1% DMSO) or animals were untreated. After 5 days of drug treatment, animals were euthanized and tumors excised for analysis of infiltrating immune cells (TILs). Tumors were dissociated to create a single cell suspension. The expression of MHC II and CD86 (dendritic cell maturation markers) was analyzed by conducting flow cytometric analysis.

[5] = tested on: non-tumorigenic, HaCaT keratinocyte cell line; assay: Cell surface CD47 expression by flow cytometry in HaCaT keratinocytes; assay type: cell-based, human; conditions: HaCaT non-tumor keratinocytes vs drug vehicle (0.1% DMSO); FIG. 8
Protocol: as §1

A431 cells = assay: Cell surface CD47 expression by flow cytometry in A431 cells; assay type: cell-based, human; conditions: A431 tumor cells vs drug vehicle (0.1% DMSO); FIG. 8
Protocol: as §1

tumor cells = conditions: background statement; see U.S. Pat. No. 9,328,060; cited from earlier work
A431 cells (NMSC) = assay: Cell surface CRT expression by flow cytometry in A431 cells; assay type: cell-based, human
Protocol: (§2) A431 cells (NMSC) and HT-29 (colon cancer) cells were treated with 15dPMJ2, oxaliplatin (OX), drug vehicle (VEH) or cells were untreated (UT) for 2 hours. Cell surface CRT expression was then detected by flow cytometric analysis.
as §1

[6] = tested on: HT-29 (colon cancer) cells; assay: Cell surface CRT expression by flow cytometry in HT-29 cells; assay type: cell-based; conditions: 5 μM (FIG. 6), 2 hours
Protocol: as §2

C[C@H]1CCC/C=C/[C@@H]2C[C@H](O)C[C@H]2[C@H](O)/C=C/C(=O)O1 [Brefeldin A, reference compound]
15dPMJ2-mediated cell surface CRT expression in presence of brefeldin A (B16F10 melanoma cells [1]; brefeldin + 15dPMJ2, FIG. 4): inhibited 15dPMJ2-mediated cell surface CRT expression

CCCCC/C=C/C=C1/C(=O)C=CC1C/C=C/CCCC(=O)NCCO (centres unmarked) [Formula 15dPMJ2, 15-deoxy Δ^12,14-prostagladin J2-ethanolamide]
cell surface expression of calreticulin (CRT; eat me signal) [2]: slight increase | expression of MHC II and CD86 (dendritic cell maturation markers) ([3]; B16F10 cells treated with 5 uM 15dPMJ2, then co-cultured with BMDCs): significantly increased the expression of MHC II and CD86 | ATP release (extracellular ATP in cell culture media) (B16F10 melanoma cells [4]; 5 uM, 4 hours, FIG. 2): significantly increased ATP release compared to vehicle and oxaliplatin treated cells | quantity of mature dendritic cells (MHC II, CD86) that infiltrated the tumor (B16F10 melanoma tumors): increased the quantity of mature dendritic cells that infiltrated the tumor | cell surface expression of CD47 (don't eat me signal) [5]: increase | cell surface calreticulin (CRT) expression (B16F10 melanoma cells [1]; 5 uM, 2 hours, flow cytometry, FIG. 1): significantly greater than oxaliplatin | cell surface expression of CD47 (don't eat me signal) (A431 cells): decreased | cell death in tumor cells compared to non-tumor cells (tumor cells): preferentially causes cell death in tumor cells compared to non-tumor cells | cell surface CRT expression (DAMP expression) (A431 cells (NMSC); A431 cells, 5 μM (FIG. 5), 2 hours): potent inducer of DAMP expression | cell surface expression of calreticulin (CRT; eat me signal) (A431 cells (NMSC); A431 tumor cells vs drug vehicle (0.1% DMSO), FIG. 7): increased | cell surface CRT expression (DAMP expression) [6]: potent inducer of DAMP expression

Cc1cccc(CC(=O)N2CCc3c2ccc(-c2cn(C)c4ncnc(N)c24)c3F)n1 [GSK2656157, reference compound]
extracellular ATP levels after 15dPMJ2 in presence of the ER stress inhibitor (B16F10 melanoma cells [4]; inhibitor + 15dPMJ2 vs 15dPMJ2 alone, FIG. 3): significantly decreased extracellular ATP levels

O=C1[O][Pt]2([NH][C@@H]3CCCC[C@H]3[NH]2)[O]C1=O [Oxaliplatin, oxaliplatin, reference compound]
dendritic cell maturation (MHC II and CD86) ([3]; B16F10 cells treated with 500 uM oxaliplatin (100 times the concentration of 15dPMJ2), then co-cultured with BMDCs, compared with 15dPMJ2): caused similar levels of dendritic cell maturation
